From patent US9028845B2, “Chimeric immunomodulatory compounds and methods of using the same-IV” (Dynavax Technologies Corporation, priority 2001, dated 2015)

Experiments:
human PBMCs = test: Human PBMC cytokine response assay (IFN-γ and IFN-α in cell-free medium by ELISA), with or without cPLGA; type: cell-based; details: for IFN-γ (pg/ml) 28065: donor 28065 (high background), 1000 = outside assay limits; for IFN-α (pg/ml) 28065: donor 28065; for IFN-α (pg/ml) 28066 / IFN-γ (pg/ml) 28066: donor 28066; for IFN-α (pg/ml) 28067 / IFN-γ (pg/ml) 28067: donor 28067; for IFN-α (pg/ml) 28068 / IFN-γ (pg/ml) 28068: donor 28068;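 as to IFN-α (pg/ml) mean: 20 µg/mL compound for 24 hours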;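 as to IFN-γ (pg/ml) mean: 20 µg/mL compound for 24 hours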
PBMCs = test: Human PBMC proliferation assay (3H-thymidine incorporation); type: cell-based; details: Experiment A; for mean cpm: 2 μg/ml; for mean of both: mean of Donors 146 and 147, 2 μg/ml
CD19+ B cells = test: Human B cell proliferation assay (3H-thymidine incorporation); details: 2 μg/ml; for B cell proliferation, in words: 48 h plus 8 h 3H-thymidine pulse; for cpm1 / cpm2 / cpm3 / mean cpm / mean of both: B cells
Protocol: Purified human B cells from 2 donors were stimulated with 5 μg/ml P-6 or CIC for 96 h. Proliferation was assessed by ^3H-thymidine incorporation.
A CIC is considered to induce “little” human B cell proliferation if B cell proliferation in the presence of the CIC is between greater than 15 to about 30% of P-6.
Human PBMCs were isolated from heparanized blood from two normal subjects. Some PBMCs were held in reserve while the remainder was incubated with CD19+ MACS beads (Miltenyi Biotec). These cells were then passed through a magnet, separating the CD19+ B cells through positive selection. […] B cells were then cultured at 1×10^5/200 μl/well in 96-well round-bottomed plates. In some cases, PBMCs were also cultured, but at 2×10^5/200 μl/well. Cells were stimulated in triplicate with 2 μg/ml polynucleotide or CIC. The culture period was 48 hours at 37° C. At the end of the culture period, the plates were pulsed with ^3H-thymidine, 1 μCi/well, and incubated for an additional 8 hours. Then the plates were harvested using standard liquid scintillation techniques and data was collected in counts per minutes (cpm).

[1] = 20 ug/ml, 24 h, + PLGA = premixed with 100 μg/ml cPLGA
[2] = mean of donors 28065-28068, 20 ug/ml, 24 h, + PLGA = premixed with 100 μg/ml cPLGA
[3] = mean of Donors 146 and 147, Experiment A
[4] = Table 24, mean of donors 28234-28237
[5] = mean of donors 110, 112, 119, 120, Table 14
[6] = mean of donors 28185-28188, Table 15

## 5′-TGCTGC-3′-HEG-5′-AGCTTGC-3′-HEG-5′-AGATGAT-3′ [Compound M-1, reference compound]
Human PBMCs; Table 10, donor 28042
  IFN-α: 0 pg/mL
  IFN-γ: 45 pg/mL
Human PBMCs; Table 10, donor 28043
  IFN-α: 0 pg/mL
  IFN-γ: 29 pg/mL
Human PBMCs; Table 10, donor 28044
  IFN-α: 13 pg/mL
  IFN-γ: 7 pg/mL
Human PBMCs; Table 10, donor 28045
  IFN-α: 2 pg/mL
  IFN-γ: 3 pg/mL
Human PBMCs; Table 10, mean of donors
  IFN-α mean: 4 pg/mL
  IFN-γ mean: 21 pg/mL
Human PBMCs; [1]
  IFN-γ (pg/ml) 28065: 157 pg/mL
  IFN-α (pg/ml) 28065: 0 pg/mL
  IFN-α (pg/ml) 28066: 0 pg/mL
  IFN-γ (pg/ml) 28066: 1 pg/mL
  IFN-α (pg/ml) 28067: 3 pg/mL
  IFN-γ (pg/ml) 28067: 40 pg/mL
  IFN-α (pg/ml) 28068: 0 pg/mL
  IFN-γ (pg/ml) 28068: 2 pg/mL
Human PBMCs; [2]
  IFN-α (pg/ml) mean: 1 pg/mL
  IFN-γ (pg/ml) mean: 50 pg/mL
Human PBMCs; used alone (no cPLGA)
  immunomodulatory activity (IFN-γ / IFN-α secretion), in words: did not show activity
PBMCs; Donor 146, 2 μg/ml
  cpm1: 8753 cpm
  cpm2: 5203 cpm
  cpm3: 4496 cpm
PBMCs; Donor 146 mean
  mean cpm: 6151 cpm
PBMCs; Donor 147, 2 μg/ml
  cpm1: 1034 cpm
  cpm2: 3298 cpm
  cpm3: 1674 cpm
PBMCs; Donor 147 mean
  mean cpm: 2002 cpm
PBMCs
  mean of both: 4076 cpm
CD19+ B cells
  B cell proliferation, in words: little to no B cell proliferation
CD19+ B cells; Donor 146, Experiment A
  cpm1: 1514 cpm
  cpm2: 2815 cpm
  cpm3: 1173 cpm
CD19+ B cells; Donor 146 mean, Experiment A
  mean cpm: 1834 cpm
CD19+ B cells; Donor 147, Experiment A
  cpm1: 1679 cpm
  cpm2: 1667 cpm
  cpm3: 1436 cpm
CD19+ B cells; Donor 147 mean, Experiment A
  mean cpm: 1594 cpm
CD19+ B cells; [3]
  mean of both: 1714 cpm

## (5′-TCGTCGA-3′)2-glycerol-5′-TCGTCGA-3′ [Compound C-28]
Human PBMCs; Table 9, donor 28089
  IFN-α: 0 pg/mL
  IFN-γ: 14 pg/mL
Human PBMCs; Table 9, donor 28090
  IFN-α: 64 pg/mL
  IFN-γ: 15 pg/mL
Human PBMCs; Table 9, donor 28098
  IFN-α: 42 pg/mL
  IFN-γ: 183 pg/mL
Human PBMCs; Table 9, donor 28099
  IFN-α: 67 pg/mL
  IFN-γ: 45 pg/mL
Human PBMCs; Table 9, mean of donors
  IFN-α mean: 43 pg/mL
  IFN-γ mean: 64 pg/mL
Human PBMCs; Table 24, donor 28234
  IFN-α: 16 pg/mL
  IFN-γ: 10 pg/mL
Human PBMCs; Table 24, donor 28235
  IFN-α: 16 pg/mL
  IFN-γ: 14 pg/mL
Human PBMCs; Table 24, donor 28236
  IFN-α: 16 pg/mL
  IFN-γ: 88 pg/mL
Human PBMCs; Table 24, donor 28237
  IFN-α: 16 pg/mL
  IFN-γ: 1229 pg/mL
Human PBMCs; [4]
  IFN-α mean: 16 pg/mL
  IFN-γ mean: 335 pg/mL
Human PBMCs; donor 110, Table 14
  IFN-α: 38 pg/mL
  IFN-γ: 5564 pg/mL
Human PBMCs; donor 112, Table 14
  IFN-α: 4 pg/mL
  IFN-γ: 52 pg/mL
Human PBMCs; donor 119, Table 14
  IFN-α: 56 pg/mL
  IFN-γ: 44 pg/mL
Human PBMCs; donor 120, Table 14
  IFN-α: 26 pg/mL
  IFN-γ: 60 pg/mL
Human PBMCs; [1]
  IFN-γ (pg/ml) 28065: 1082 pg/mL
  IFN-α (pg/ml) 28065: 3 pg/mL
  IFN-α (pg/ml) 28066: 0 pg/mL
  IFN-γ (pg/ml) 28066: 5 pg/mL
  IFN-α (pg/ml) 28067: 29 pg/mL
  IFN-γ (pg/ml) 28067: 42 pg/mL
  IFN-α (pg/ml) 28068: 52 pg/mL
  IFN-γ (pg/ml) 28068: 410 pg/mL
Human PBMCs; donor 28185, Table 15
  IFN-a: 14 pg/mL
  IFN-g: 162 pg/mL
Human PBMCs; donor 28186, Table 15
  IFN-a: 4 pg/mL
  IFN-g: 24 pg/mL
Human PBMCs; donor 28187, Table 15
  IFN-a: 0 pg/mL
  IFN-g: 75 pg/mL
Human PBMCs; donor 28188, Table 15
  IFN-a: 4 pg/mL
  IFN-g: 5 pg/mL
Human PBMCs; [5]
  IFN-α (pg/ml) mean: 31 pg/mL
  IFN-γ (pg/ml) mean: 1430 pg/mL
Human PBMCs; [2]
  IFN-α (pg/ml) mean: 21 pg/mL
  IFN-γ (pg/ml) mean: 385 pg/mL
Human PBMCs; [6]
  IFN-a (pg/ml) mean: 6 pg/mL
  IFN-g (pg/ml) mean: 66 pg/mL
Human PBMCs; mean ×2, Table 15
  IFN-a (pg/ml) ×2: 11 pg/mL
Human PBMCs; mean ×4, Table 15
  IFN-g (pg/ml) ×4: 266 pg/mL
Human PBMCs; used alone
  IFN-α induction, in words: HEG (C-94)>TEG (C-103)>C3 (C-104)=no linker (C-28)
PBMCs; Donor 146, 2 μg/ml
  cpm1: 94977 cpm
  cpm2: 121595 cpm
  cpm3: 84977 cpm
PBMCs; Donor 146 mean
  mean cpm: 100516 cpm
PBMCs; Donor 147, 2 μg/ml
  cpm1: 103916 cpm
  cpm2: 91439 cpm
  cpm3: 100905 cpm
PBMCs; Donor 147 mean
  mean cpm: 98753 cpm
PBMCs
  mean of both: 99635 cpm
CD19+ B cells
  B cell proliferation, in words: cause B cells to proliferate
CD19+ B cells; Donor 146, Experiment A
  cpm1: 50999 cpm
  cpm2: 54630 cpm
  cpm3: 46418 cpm
CD19+ B cells; Donor 146 mean, Experiment A
  mean cpm: 50682 cpm
CD19+ B cells; Donor 147, Experiment A
  cpm1: 65593 cpm
  cpm2: 51040 cpm
  cpm3: 50357 cpm
CD19+ B cells; Donor 147 mean, Experiment A
  mean cpm: 55663 cpm
CD19+ B cells; donor 121, Experiment B
  cpm1: 35393 cpm
  cpm2: 26954 cpm
  cpm3: 26780 cpm
CD19+ B cells; donor 121 mean, Experiment B
  mean cpm: 29709 cpm
CD19+ B cells; donor 194, Experiment B
  cpm1: 21588 cpm
  cpm2: 13691 cpm
  cpm3: 15691 cpm
CD19+ B cells; donor 194 mean, Experiment B
  mean cpm: 16990 cpm
CD19+ B cells; [3]
  mean of both: 53173 cpm
CD19+ B cells; mean of donors 121 and 194, Experiment B
  mean of both: 23350 cpm
